Laboratory results from PubChem BioAssay (NCI).
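Cultured in 96-well plates, cells were exposed to test compound for 48 hours across five concentrations. Abbreviation: GI50, concentration required for 50% inhibition of growth. TGI denotes the concentration required for complete inhibition of growth.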

What was measured:
Assay in all cases: NCI-60 cell line screen, 48 h
A549 NSCLC = tested on: A549 NSCLC
DU-145 prostate = tested on: DU-145 prostate
SW-620 colon = tested on: SW-620 colon
KM12 colon = tested on: KM12 colon
HOP-92 NSCLC = tested on: HOP-92 NSCLC
OVCAR-4 ovarian = tested on: OVCAR-4 ovarian
M14 melanoma = tested on: M14 melanoma
SF-268 CNS = tested on: SF-268 CNS
RXF 393 renal = tested on: RXF 393 renal
SK-OV-3 ovarian = tested on: SK-OV-3 ovarian
NCI-H522 lung = tested on: NCI-H522 lung
NCI-H226 lung = tested on: NCI-H226 lung
UACC-62 melanoma = tested on: UACC-62 melanoma
MDA-MB-231 breast = tested on: MDA-MB-231 breast
RPMI-8226 leukemia = tested on: RPMI-8226 leukemia
COLO 205 colon = tested on: COLO 205 colon
SN12C renal = tested on: SN12C renal
PC-3 prostate = tested on: PC-3 prostate
SNB-19 CNS = tested on: SNB-19 CNS
HT29 colon = tested on: HT29 colon
IGROV1 ovarian = tested on: IGROV1 ovarian
A498 renal = tested on: A498 renal
HCC-2998 colon = tested on: HCC-2998 colon
HCT-15 colon = tested on: HCT-15 colon
ACHN renal = tested on: ACHN renal
T-47D breast = tested on: T-47D breast
SNB-75 CNS = tested on: SNB-75 CNS
HOP-62 NSCLC = tested on: HOP-62 NSCLC
SF-539 CNS = tested on: SF-539 CNS
MALME-3M melanoma = tested on: MALME-3M melanoma
BT-549 breast = tested on: BT-549 breast
HCT-116 colon = tested on: HCT-116 colon
HS 578T breast = tested on: HS 578T breast
786-0 renal = tested on: 786-0 renal
EKVX NSCLC = tested on: EKVX NSCLC
NCI/ADR-RES ovarian = tested on: NCI/ADR-RES ovarian
SK-MEL-28 melanoma = tested on: SK-MEL-28 melanoma
NCI-H23 lung = tested on: NCI-H23 lung
LOX IMVI melanoma = tested on: LOX IMVI melanoma
OVCAR-5 ovarian = tested on: OVCAR-5 ovarian
OVCAR-3 ovarian = tested on: OVCAR-3 ovarian
SR leukemia = tested on: SR leukemia
U251 CNS = tested on: U251 CNS
CCRF-CEM leukemia = tested on: CCRF-CEM leukemia
MDA-MB-435 = tested on: MDA-MB-435
UACC-257 melanoma = tested on: UACC-257 melanoma
MCF7 breast = tested on: MCF7 breast
NCI-H460 lung = tested on: NCI-H460 lung
SK-MEL-2 melanoma = tested on: SK-MEL-2 melanoma
MOLT-4 leukemia = tested on: MOLT-4 leukemia
HL-60(TB) leukemia = tested on: HL-60(TB) leukemia
OVCAR-8 ovarian = tested on: OVCAR-8 ovarian
TK-10 renal = tested on: TK-10 renal
SK-MEL-5 melanoma = tested on: SK-MEL-5 melanoma
UO-31 renal = tested on: UO-31 renal
K-562 leukemia = tested on: K-562 leukemia
CAKI-1 renal = tested on: CAKI-1 renal
SF-295 CNS = tested on: SF-295 CNS

## O=S(=O)(NCCNc1cc(-c2cn(-c3ccccc3)nc2-c2cccc(O)c2)ccn1)c1ccc(Cl)cc1
A549 NSCLC
  GI50: 3.89 µM
  TGI: 18.8 µM
DU-145 prostate
  GI50: 3.6 µM
  TGI: 21.3 µM
SW-620 colon
  GI50: 3.69 µM
  TGI: 18.9 µM
KM12 colon
  GI50: 2.63 µM
  TGI: 9.62 µM
HOP-92 NSCLC
  GI50: 2.34 µM
  TGI: 8.35 µM
OVCAR-4 ovarian
  GI50: 4.37 µM
  TGI: > 100 µM
M14 melanoma
  GI50: 2.54 µM
  TGI: 8.61 µM
SF-268 CNS
  GI50: 2.51 µM
  TGI: 8.94 µM
RXF 393 renal
  GI50: 2.86 µM
  TGI: 10.1 µM
SK-OV-3 ovarian
  GI50: 3.62 µM
  TGI: 19.6 µM
NCI-H522 lung
  GI50: 2.16 µM
  TGI: 5.79 µM
NCI-H226 lung
  GI50: 4.02 µM
  TGI: 21.2 µM
UACC-62 melanoma
  GI50: 2.08 µM
  TGI: 5.08 µM
MDA-MB-231 breast
  GI50: 2.14 µM
  TGI: 5.56 µM
RPMI-8226 leukemia
  GI50: 2.59 µM
  TGI: 7.75 µM
COLO 205 colon
  GI50: 1.87 µM
  TGI: 4 µM
SN12C renal
  GI50: 3.47 µM
  TGI: 14 µM
PC-3 prostate
  GI50: 2.45 µM
  TGI: 12 µM
SNB-19 CNS
  GI50: 4.26 µM
  TGI: 63.7 µM
HT29 colon
  GI50: 2.24 µM
  TGI: 5.21 µM
IGROV1 ovarian
  GI50: 3.82 µM
  TGI: 24.2 µM
A498 renal
  GI50: 2.33 µM
  TGI: 9.52 µM
HCC-2998 colon
  GI50: 1.99 µM
  TGI: 4.14 µM
HCT-15 colon
  GI50: 2.14 µM
  TGI: 6.42 µM
ACHN renal
  GI50: 2.63 µM
  TGI: 10.3 µM
T-47D breast
  GI50: 2.16 µM
  TGI: 7.74 µM
SNB-75 CNS
  GI50: 3.28 µM
  TGI: 20.4 µM
HOP-62 NSCLC
  GI50: 2.87 µM
  TGI: 13.7 µM
SF-539 CNS
  GI50: 2.08 µM
  TGI: 5.3 µM
MALME-3M melanoma
  GI50: 2.16 µM
  TGI: 5.47 µM
BT-549 breast
  GI50: 2.06 µM
  TGI: 7.65 µM
HCT-116 colon
  GI50: 2.69 µM
  TGI: 11.4 µM
HS 578T breast
  GI50: 3 µM
  TGI: > 100 µM
786-0 renal
  GI50: 2.54 µM
  TGI: 9.78 µM
EKVX NSCLC
  GI50: 2.87 µM
  TGI: 31.2 µM
NCI/ADR-RES ovarian
  GI50: 2.84 µM
  TGI: 13.4 µM
SK-MEL-28 melanoma
  GI50: 2.2 µM
  TGI: 5.42 µM
NCI-H23 lung
  GI50: 3.07 µM
  TGI: 13.4 µM
LOX IMVI melanoma
  GI50: 1.76 µM
  TGI: 3.56 µM
OVCAR-5 ovarian
  GI50: 2.66 µM
  TGI: 11 µM
OVCAR-3 ovarian
  GI50: 2.06 µM
  TGI: 5.05 µM
SR leukemia
  GI50: 1.71 µM
  TGI: 5.07 µM
U251 CNS
  GI50: 3.21 µM
  TGI: 11.4 µM
CCRF-CEM leukemia
  GI50: 3.4 µM
  TGI: 28.6 µM
MDA-MB-435
  GI50: 2.86 µM
  TGI: 10.1 µM
UACC-257 melanoma
  GI50: 3.39 µM
  TGI: 10.3 µM
MCF7 breast
  GI50: 2.74 µM
  TGI: 9.43 µM
NCI-H460 lung
  GI50: 3.34 µM
  TGI: 11.9 µM
SK-MEL-2 melanoma
  GI50: 2.4 µM
  TGI: 5.71 µM
MOLT-4 leukemia
  GI50: 2.51 µM
  TGI: 7.37 µM
HL-60(TB) leukemia
  GI50: 2.42 µM
  TGI: 5.98 µM
OVCAR-8 ovarian
  GI50: 3.72 µM
  TGI: 22.6 µM
TK-10 renal
  GI50: 4.25 µM
  TGI: 23.1 µM
SK-MEL-5 melanoma
  GI50: 2.02 µM
  TGI: 4 µM
UO-31 renal
  GI50: 2.92 µM
  TGI: 12.1 µM
K-562 leukemia
  GI50: 1.98 µM
  TGI: 5.4 µM
CAKI-1 renal
  GI50: 4.46 µM
  TGI: > 100 µM

## NC(=S)N/N=C\c1nccc2c(N)cccc12
A549 NSCLC
  GI50: 0.484 µM
  TGI: > 27 µM
DU-145 prostate
  GI50: 0.278 µM
  TGI: 2.38 µM
SW-620 colon
  GI50: 0.476 µM
  TGI: > 100 µM
KM12 colon
  GI50: 0.38 µM
  TGI: > 100 µM
HOP-92 NSCLC
  GI50: 0.233 µM
  TGI: > 100 µM
OVCAR-4 ovarian
  GI50: 0.414 µM
  TGI: > 100 µM
M14 melanoma
  GI50: 0.153 µM
  TGI: 0.317 µM
SF-268 CNS
  GI50: 0.242 µM
RXF 393 renal
  GI50: 0.248 µM
  TGI: 17.1 µM
SK-OV-3 ovarian
  GI50: 0.541 µM
  TGI: > 100 µM
NCI-H522 lung
  GI50: 0.178 µM
  TGI: 0.509 µM
NCI-H226 lung
  GI50: 0.282 µM
  TGI: 1.08 µM
UACC-62 melanoma
  GI50: 0.264 µM
  TGI: 1.94 µM
MDA-MB-231 breast
  GI50: 0.471 µM
  TGI: > 100 µM
RPMI-8226 leukemia
  GI50: 0.223 µM
  TGI: > 82.8 µM
COLO 205 colon
  GI50: 1.09 µM
  TGI: > 100 µM
SN12C renal
  GI50: 0.314 µM
  TGI: > 39.5 µM
PC-3 prostate
  GI50: 0.452 µM
  TGI: > 100 µM
SNB-19 CNS
  GI50: 0.557 µM
  TGI: > 100 µM
HT29 colon
  GI50: 0.454 µM
  TGI: > 100 µM
IGROV1 ovarian
  GI50: 0.219 µM
SF-295 CNS
  GI50: 0.309 µM
  TGI: 3.81 µM
A498 renal
  GI50: 0.172 µM
  TGI: 1.02 µM
HCC-2998 colon
  GI50: 0.374 µM
  TGI: > 100 µM
HCT-15 colon
  GI50: 0.426 µM
  TGI: > 100 µM
ACHN renal
  GI50: 0.0977 µM
T-47D breast
  GI50: 0.454 µM
  TGI: > 100 µM
SNB-75 CNS
  GI50: 0.139 µM
  TGI: 87.5 µM
HOP-62 NSCLC
  GI50: 0.352 µM
  TGI: > 22 µM
SF-539 CNS
  GI50: 0.146 µM
  TGI: 0.757 µM
MALME-3M melanoma
  GI50: 0.316 µM
  TGI: 3.08 µM
BT-549 breast
  GI50: 0.836 µM
  TGI: > 100 µM
HCT-116 colon
  GI50: 0.356 µM
  TGI: > 46 µM
HS 578T breast
  GI50: 1.68 µM
  TGI: > 100 µM
786-0 renal
  GI50: 0.163 µM
  TGI: 0.737 µM
EKVX NSCLC
  GI50: 0.803 µM
  TGI: > 100 µM
NCI/ADR-RES ovarian
  GI50: 0.375 µM
  TGI: 17.3 µM
SK-MEL-28 melanoma
  GI50: 1.16 µM
  TGI: > 100 µM
NCI-H23 lung
  GI50: 0.224 µM
  TGI: > 94.8 µM
LOX IMVI melanoma
  GI50: 0.292 µM
OVCAR-5 ovarian
  GI50: 1.14 µM
  TGI: > 100 µM
OVCAR-3 ovarian
  GI50: 0.306 µM
  TGI: > 100 µM
SR leukemia
  GI50: 0.0398 µM
  TGI: > 35.8 µM
U251 CNS
  GI50: 0.237 µM
MDA-MB-435
  GI50: 0.379 µM
  TGI: > 100 µM
UACC-257 melanoma
  GI50: 0.624 µM
  TGI: 9.44 µM
MCF7 breast
  GI50: 0.218 µM
NCI-H460 lung
  GI50: 0.303 µM
  TGI: 2.04 µM
SK-MEL-2 melanoma
  GI50: 2.79 µM
  TGI: > 100 µM
MOLT-4 leukemia
  GI50: 0.235 µM
  TGI: > 100 µM
HL-60(TB) leukemia
  GI50: 0.181 µM
  TGI: 11.7 µM
OVCAR-8 ovarian
  GI50: 0.222 µM
TK-10 renal
  GI50: 0.961 µM
  TGI: > 100 µM
SK-MEL-5 melanoma
  GI50: 0.324 µM
  TGI: 4.01 µM
UO-31 renal
  GI50: 0.298 µM
  TGI: 1.24 µM
K-562 leukemia
  GI50: 0.497 µM
  TGI: > 100 µM
CAKI-1 renal
  GI50: 0.243 µM
  TGI: 1.01 µM
